Results published in PubChem BioAssay AID1918955 (Molecular Pharmacology Branch, DTP, NCI, 2023).

Tested on: NCI/ADR-RES complex spheroid viability
Assay: Anticancer human tumor NCI/ADR-RES cell line growth inhibition;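 note: spheroids exposed to compounds for 7 days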;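 for viability, T/C: 100% = DMSO vehicle treated spheroids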
Conditions: for IC50: curve of first compound; for viability, T/C: stronger effect = lower value
Excerpt: Multicellular complex tumor spheroid response to LSD1 Inhibitor Iadademstat in combination with a variety of drugs and investigational agents in selected tumor cell lines
The current study was undertaken to assess response to LSD1 inhibitors in combination with standard-of-care drugs and investigational agents in solid tumor complex spheroid models as well as in the K-562 leukemia. Complex spheroids include a stromal component modeled by human endothelial cells (HUVEC) and fibroblasts modeled by human mesenchymal stem cells (MSCs). The concentration ranges selected for each drug and investigational agent were based upon clinically achievable concentrations if the clinical Cmax of the agent was known.
Compounds. The drugs and investigational agents used in this study are listed on Table 1. All of the agents used, including staurosporine (NSC755774) and gemcitabine (NSC613327), were obtained from the Developmental Therapeutics Program, NCI. FDA-approved anticancer drugs are available from the NCI at http://dtp.nci.nih.gov/branches/dscb/oncology_drugset_explanation.html. Drugs and investigational agents were >95% pure by proton nuclear magnetic resonance (NMR) and liquid chromatography/mass spectrometry (LC/MS). Stock solutions were prepared at 400x in DMSO, stored at -70 degrees C, and diluted in fresh medium prior to their use. The final concentration of DMSO in cell culture wells never exceeded 0.25% (v/v). The FDA-approved anticancer drug set is available from the Developmental Therapeutics Program at https://dtp.cancer.gov/organization/dscb/obtaining/available_plates.htm. All drugs and investigational agents were tested over a range starting from a high concentration at or near the clinical Cmax and decreasing in half-log increments. If the clinical Cmax for an agent had not been determined, the highest concentration tested was 10 microM.
Cell Lines. The patient-derived cancer cell (PDC) lines: 292921-168-R-J2-PDC, K24384-001-R-PDC, and 521955-158-R2-J5-PDC pancreatic carcinomas, 556581-035-R-J1 ovarian carcinoma, 324938-238-R-J1-PDC, 855422-203-R-J1-PDC and 883617-216-R-J1-PDC urothelial bladder carcinomas, 743489-274-T-PDC renal cell carcinoma, 138582-R-J1 Merkel cell tumor, K60290-347-R-J1 and K57222-313-R-J1-PDC glioblastomas, 653999-131-R-J2-PDC, LG0703-F948-PDC, and 349418-098-R-PDC non-small cell lung carcinomas, 885512-296-R-J2-PDC, 171881-019-R-J1-PDC breast carcinomas and 186277-243-T-J2-PDC and 233499-124-R-J2-PDC colon carcinomas were obtained from the NCI Patient-Derived Models Repository (PDMR, https://pdmr.cancer.gov). The established cell lines NCI/ADR-RES (RRID:CVCL_14520 and OVCAR-5 (RRID:CVCL_1628) ovarian carcinomas, 786-O (RRID:CVCL_1051) and A498 (RRID:CVCL_A498) renal cell carcinoma, NCI-H211 (ATCC, cat. CRL-5824; RRID:CVCL_1529), NCI-H196 (ATCC, cat. CRL-5823, RRID:CVCL_1509), SW 1271 (ATCC, cat. CRL-2177, RRID:CVCL_1716) and NCI-H1876 (ATCC, cat. CRL-5902, RRID:CVCL_1503) small cell lung carcinomas, MDA-MB-231 (RRID:CVCL_0062) and MDA-MB-468 (RRID:CVCL_0419)breast carcinomas (10-12). Pooled donor human umbilical vein endothelial cells (HUVEC, Lonza, cat. CC-2519) and human mesenchymal stem cells (hMSC, Lonza, cat. PT-2501) were purchased from Lonza (Walkersville, MD).
Cell Culture. All cells were maintained in an incubator at 37 degrees C and 5% CO2 with 95% humidity. The PDC lines were cultured according to standard operating procedures established by the NCI PDMR (https://pdmr.cancer.gov). Briefly all PDCs were thawed and cultured in Matrigel-coated flasks prepared with a working solution of 1X Ham's F-12 nutrient mix, without supplementation (Invitrogen, Waltham, MA, cat. 11765054), 100 U/mL penicillin-streptomycin (Invitrogen, cat. 15140122), and 2.5% Matrigel (Corning Inc., Corning, NY, cat. 354248) for the first three passages. […]

In the case of `CC[C@@]1(O)C(=O)OCc2c1cc1n(c2=O)Cc2cc3c(CN(C)C)c(O)ccc3nc2-1` + NC1CC1c1ccc(-c2cccc(O)c2)cc1, the IC50 (second compound 0.1 µM) is reported as 8.38 nM, the IC50 (second compound 0.316 µM) is reported as 8.87 nM and the IC50 (second compound 1 µM) is reported as 10.5 nM. For the same molecule, the IC50 (second compound 3.16 µM) was 13.3 nM, the IC50 (second compound 10 µM) was 13.2 nM and the viability, T/C (second compound 0.1 µM, first compound 0.000316 µM) was 110%. It also gave a viability, T/C (second compound 0.1 µM, first compound 0.001 µM) of 101%, a viability, T/C (second compound 0.1 µM, first compound 0.00316 µM) of 84.9% and a viability, T/C (second compound 0.1 µM, first compound 0.01 µM) of 43.3%. For the same molecule, the viability, T/C (second compound 0.1 µM, first compound 0.0316 µM) was 13.4%, the viability, T/C (second compound 0.1 µM, first compound 0.1 µM) was 2.49% and the viability, T/C (second compound 0.316 µM, first compound 0.000316 µM) was 111%. It also gave a viability, T/C (second compound 0.316 µM, first compound 0.001 µM) of 103%, a viability, T/C (second compound 0.316 µM, first compound 0.00316 µM) of 86.2% and a viability, T/C (second compound 0.316 µM, first compound 0.01 µM) of 45.2%. For the same molecule, the viability, T/C (second compound 0.316 µM, first compound 0.0316 µM) was 14.9%, the viability, T/C (second compound 0.316 µM, first compound 0.1 µM) was 2.48% and the viability, T/C (second compound 1 µM, first compound 0.000316 µM) was 101%. It also gave a viability, T/C (second compound 1 µM, first compound 0.001 µM) of 98.9%, a viability, T/C (second compound 1 µM, first compound 0.00316 µM) of 83.5% and a viability, T/C (second compound 1 µM, first compound 0.01 µM) of 52.2%. For the same molecule, the viability, T/C (second compound 1 µM, first compound 0.0316 µM) was 16.3%, the viability, T/C (second compound 1 µM, first compound 0.1 µM) was 2.84% and the viability, T/C (second compound 3.16 µM, first compound 0.000316 µM) was 97%. It also gave a viability, T/C (second compound 3.16 µM, first compound 0.001 µM) of 94%, a viability, T/C (second compound 3.16 µM, first compound 0.00316 µM) of 81.2% and a viability, T/C (second compound 3.16 µM, first compound 0.01 µM) of 60.1%. It also gave a viability, T/C (second compound 3.16 µM, first compound 0.0316 µM) of 23.7%, a viability, T/C (second compound 3.16 µM, first compound 0.1 µM) of 4.48% and a viability, T/C (second compound 10 µM, first compound 0.000316 µM) of 95.1%. It also gave a viability, T/C (second compound 10 µM, first compound 0.001 µM) of 82.3%, a viability, T/C (second compound 10 µM, first compound 0.00316 µM) of 74.2% and a viability, T/C (second compound 10 µM, first compound 0.01 µM) of 57.1%. For the same molecule, the viability, T/C (second compound 10 µM, first compound 0.0316 µM) was 31.4% and the viability, T/C (second compound 10 µM, first compound 0.1 µM) was 9.59%.

`COc1cc(C2c3cc4c(cc3C(OC3OC5COC(C)OC5C(O)C3O)C3COC(=O)C23)OCO4)cc(OC)c1O` (stereo not given) + NC1CC1c1ccc(-c2cccc(O)c2)cc1 was tested, and the IC50 (second compound 0.1 µM) was over 3000 nM, the IC50 (second compound 0.316 µM) was over 3000 nM and the IC50 (second compound 1 µM) was over 3000 nM. It also gave an IC50 (second compound 3.16 µM) of over 3000 nM, an IC50 (second compound 10 µM) of over 3000 nM and a viability, T/C (second compound 0.1 µM, first compound 0.00949 µM) of 104%. For the same molecule, the viability, T/C (second compound 0.1 µM, first compound 0.03 µM) was 112%, the viability, T/C (second compound 0.1 µM, first compound 0.0949 µM) was 106% and the viability, T/C (second compound 0.1 µM, first compound 0.3 µM) was 101%. It also gave a viability, T/C (second compound 0.1 µM, first compound 0.949 µM) of 100%, a viability, T/C (second compound 0.1 µM, first compound 3 µM) of 90.4% and a viability, T/C (second compound 0.316 µM, first compound 0.00949 µM) of 113%. For the same molecule, the viability, T/C (second compound 0.316 µM, first compound 0.03 µM) was 104%, the viability, T/C (second compound 0.316 µM, first compound 0.0949 µM) was 106% and the viability, T/C (second compound 0.316 µM, first compound 0.3 µM) was 104%. For the same molecule, the viability, T/C (second compound 0.316 µM, first compound 0.949 µM) was 103%, the viability, T/C (second compound 0.316 µM, first compound 3 µM) was 92.6% and the viability, T/C (second compound 1 µM, first compound 0.00949 µM) was 102%. The viability, T/C (second compound 1 µM, first compound 0.03 µM) was 101%, the viability, T/C (second compound 1 µM, first compound 0.0949 µM) was 99.6% and the viability, T/C (second compound 1 µM, first compound 0.3 µM) was 96.5%. The viability, T/C (second compound 1 µM, first compound 0.949 µM) was 92.7%, the viability, T/C (second compound 1 µM, first compound 3 µM) was 92.4% and the viability, T/C (second compound 3.16 µM, first compound 0.00949 µM) was 98.5%. It also gave a viability, T/C (second compound 3.16 µM, first compound 0.03 µM) of 100%, a viability, T/C (second compound 3.16 µM, first compound 0.0949 µM) of 95.2% and a viability, T/C (second compound 3.16 µM, first compound 0.3 µM) of 95.7%. It also gave a viability, T/C (second compound 3.16 µM, first compound 0.949 µM) of 94.2%, a viability, T/C (second compound 3.16 µM, first compound 3 µM) of 84.9% and a viability, T/C (second compound 10 µM, first compound 0.00949 µM) of 84.6%. The viability, T/C (second compound 10 µM, first compound 0.03 µM) was 81%, the viability, T/C (second compound 10 µM, first compound 0.0949 µM) was 79.3% and the viability, T/C (second compound 10 µM, first compound 0.3 µM) was 80.2%. For the same molecule, the viability, T/C (second compound 10 µM, first compound 0.949 µM) was 78.6% and the viability, T/C (second compound 10 µM, first compound 3 µM) was 71.1%.
